Marks after values point to notes of the source that are not given here.
Test: Plasma pharmacokinetics of capivasertib and its glucuronide metabolite
Assay type: in vivo, human
Conditions: for Ctrough cycle 1, day 13: 12 h post day 12 capivasertib evening dose; for Ctrough cycle 1, day 9: after 3 off-capivasertib-dosing days; for tmax: median (range)
[1] = geometric mean (gCV%), listed as Capivasertib

NC1(C(=O)N[C@@H](CCO)c2ccc(Cl)cc2)CCN(c2nc[nH]c3nccc2-3)CC1 [capivasertib]
AUCτ (geometric mean (gCV%), 12-h dosing interval, day 12 of cycle 1, capivasertib 400 mg BID): 8.499 µg·h/mL | Ctrough cycle 1, day 13 (geometric mean (gCV%)): 281.5 ng/mL | Ctrough cycle 1, day 13 [1]: 281.5^f (53.3) ng/mL | Ctrough cycle 1, day 9 (geometric mean (gCV%)): 10.96 ng/mL | Ctrough cycle 1, day 9 [1]: 10.96^e (137.0) ng/mL | Cmax (geometric mean (gCV%), day 12 of cycle 1, 4th day on capivasertib 400 mg BID, with single oral midazolam 1 mg): 1.779 µg/mL | t½λz (geometric mean (gCV%), day 12 of cycle 1, capivasertib 400 mg BID): 3.76 h | CL/F (geometric mean (gCV%), day 12 of cycle 1, capivasertib 400 mg BID oral): 46.4 L/h | tmax (day 12 of cycle 1, capivasertib 400 mg BID): 1.5 h | tmax (day 12 of cycle 1, capivasertib 400 mg BID, listed as Capivasertib): 1.48^a (0.6–5.5) h

Source: publication PMC11390765 (Cancer Chemotherapy and Pharmacology, 2024)
